{"source": "patent US20090081786A1", "about": "“Peptide sequences for modulation of protein kinase C” (priority 2006, published 2009)", "key": {"annexin V/δ-PKC complex": {"system": "annexin V/δ-PKC complex", "assay": "co-immunoprecipitation of annexin V/δ-PKC complex from CHO cells", "assay_type": "cell-based, hamster", "experimental": "The complexes were immunoprecipitated with anti-δ-PKC antibodies and probed for the presence of annexin V at the combined molecular weight of about 110 kD.\nCHO-K1 cells (available through the ATCC) were grown in F-12 (HAM) nutrient mixture supplemented with GLUTAMAX, 10% fetal bovine serum, and antibiotics (100 units/ml penicillin and […] streptomycin sulfate, all from Invitrogen Corp.). The cells were cultured at 37° C. under 5% CO2. At 48 hours prior to the study, the cells were serum starved. They were stimulated with 10 nM phorbol 12-myristate 13-acetate (PMA) (available through LC Laboratories) or with 5 mM H2O2 (available through Sigma Chemical Corp.) for the indicated duration ranging from about 30 seconds to about 5 minutes, a technique well-known to one of skill in the art. The cells were washed with cold PBS, and homogenized on ice with trituration in homogenization buffer (20 mM Tris pH 7.4, 2 mM EDTA, 10 mM EGTA, 0.25M sucrose, 12 mM β-mercaptoethanol, protease inhibitor cocktail (available through Sigma Chemical Corp)), 0.1% TRITON X-100, and 1% formaldehyde.\nIt was observed that the 0.1% TRITON extracts all of the translocatable PKC from the cell. After 30 min at 4° C., the lysates were quenched with 0.14M glycine for 20 min at 4° C., and the samples were spun at 14K rpm at 4° C. The supernatant was incubated with 1 μg anti-δ-PKC antibody (available through Santa Cruz Biotechnology) for 1 hour, followed by exposure to protein-G beads (available through Invitrogen Corp.) for 3 hours at 4° C. The beads were then washed with wash buffer (20 mM Tris pH 7.5, 2 mM EDTA, 100 mM NaCl, 12 mM β-mercaptoethanol, 0.1% TRITON), and separated on 7.5% SDS-PAGE, transferred to nitrocellulose, and probed with anti-annexin V (available through Santa Cruz Biotechnology), followed by visualization using an enhanced chemiluminescence (ECL) method."}, "δ-PKC [1]": {"system": "δ-PKC", "assay": "real-time confocal imaging of YFP-δPKC translocation in CHO cells", "assay_type": "cell-based, hamster", "details": "10 μM pretreatment for 30 minutes, 100 nM PMA, vs untreated", "experimental": "CHO cells were grown on chambered #1 Borosilicate coverglass (Lab-Tek), transfected at 50% confluency using Fugene 6 (Roche), according to the manufacturer's instructions, with CFP-annexin V and YFP-δPKC cloned into the pECFP-C1 and pEYFP-C1 vectors, respectively (Clontech). The cells were serum starved for 24 hours. Real-time confocal imaging was conducted on a spinning disk Nipkow confocal microscope, and the cells were viewed using an inverted Olympus IX70 microscope with a 40× oil immersion Olympus objective (1.35 NA). Images were acquired using a CCD camera (Hamamatsu) with 2×2 pixel binning. […]\nFluorescence intensity was measured using METAMORPH data analysis software (Universal Imaging). To monitor the translocation of the PKC and the increases in FRET signal, a small region of interest was selected from each cell and fluorescence intensity values were graphed against time and normalized to the initial fluorescence. FRET was calculated using a formula that corrects for bleed-through and donor concentration: FRET=(I(442-530)-αI(442-480)-βI(515-530))/I(442-480). The α and β coefficients were calculated from singly transfected cells, where α=I(442-530)/I(442-480)=47.6% of CFP bleed-through into the YFP channel, and β=I(442-530)/I(515-530)=14.4% of YFP excitation from the CFP channel."}, "δ-PKC/annexin V": {"system": "δ-PKC/annexin V", "assay": "δ-PKC/annexin V binding ELISA assay"}, "ε-PKC": {"system": "ε-PKC", "assay": "PMA-induced translocation of ε-PKC in CHO cells", "assay_type": "cell-based, hamster", "details": "peptide pretreatment", "experimental": "(§1) The CHO cells of Example 1 were fractionated, stimulated, and washed with cold PBS, scraped in homogenization buffer, and spun at 100,000 g for 30 min at 4° C., resulting in the soluble fraction. The pellet was then resuspended in a homogenization buffer with 1% TRITON X-100, and spun under the same conditions. Where applicable, the cells were pre-incubated with 1 μM peptide for 15 minutes prior to stimulation. The samples were then analyzed using a Western blot, and the loading was corrected for protein concentration using an internal control such as actin."}, "isolated rat hearts": {"system": "isolated rat hearts", "assay": "ex vivo model of ischemia and reperfusion in isolated rat hearts", "details": "1 μM", "experimental": "FIG. 6C compares the infarct sizes that were measured on both sides of the tissue slices and averaged. […] In FIG. 6D, creatine phosphokinase (CPK) release was measured in the heart perfusate during the reperfusion."}, "δ-PKC [2]": {"system": "δ-PKC", "assay": "PMA-induced translocation of δ-PKC from soluble to particulate fraction in CHO cells", "assay_type": "cell-based, hamster", "details": "1 μM peptide pretreatment, 5 minutes of PMA stimulation", "experimental": "as §1"}, "annexin V": {"biological_target": "T1, annexin V (Homo sapiens, UniProt P08758)", "T1 sequence (P08758 1-320)": "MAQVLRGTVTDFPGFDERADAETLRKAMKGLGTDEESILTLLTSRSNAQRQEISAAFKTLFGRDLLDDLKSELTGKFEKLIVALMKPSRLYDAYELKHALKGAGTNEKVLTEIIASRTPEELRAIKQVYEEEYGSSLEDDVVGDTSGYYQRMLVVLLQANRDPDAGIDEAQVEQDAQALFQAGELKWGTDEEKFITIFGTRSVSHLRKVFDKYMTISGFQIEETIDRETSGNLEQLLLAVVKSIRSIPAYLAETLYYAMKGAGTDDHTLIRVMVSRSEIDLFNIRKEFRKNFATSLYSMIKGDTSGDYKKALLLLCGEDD", "assay": "overlay binding assay on immobilized annexin V", "details": "immobilized annexin V on nitrocellulose, overlay 37° C. 30 min, Western blotting", "experimental": "A binding assay was performed in vitro, using an immobilized annexin V with the δ-PKC, δ-V1 (SEQ ID NO:18) (the C2 domain of δ-PKC), δ-V5 (SEQ ID NO:19), and ε-V1 (SEQ ID NO:20) peptides. These domains are recognized in the art as participating in protein-protein interactions.\n10 μg of the annexin V was separated on 12% SDS-PAGE gel and transferred to nitrocellulose, and then cut into strips. The strips were incubated with blocking buffer (50 mM Tris pH 7.5, 200 mM NaCl, 3% bovine serum albumin, 0.1% PEG20). The strips were then incubated in overlay buffer (50 mM Tris pH 7.5, 200 mM NaCl, 1% PEG20, 12 mM β-mercaptoethanol) in the presence where appropriate of 30 μg crude bacterial cell lysate containing fusion proteins of myelin basic protein (MBP)-delta V1 PKC (MBP-δV1), glutathione-S-transferase-delta V5 PKC (GST-δV5), and full length sequences of δ-PKC or rat purified ε-PKC (SEQ ID NO:21) at 37° C. for 30 min. The strips where then washed with wash buffer (50 mM Tris pH 7.5, 200 mM NaCl, 0.1% PEG20, 12 mM β-mercaptoethanol), and then incubated with fixative (0.2% formaldehyde in PBS) and neutralizing solution (0.2M glycine in PBS) at room temperature 20 min each. After washing with buffer, the strips were probed with antibodies according to the overlay protein, and resulting bands were visualized using ECL Western blotting."}}}
{"molecule": "OO", "note": "[H2O2]", "values": [{"measurement": "association between annexin V and δ-PKC", "setting": "annexin V/δ-PKC complex; H2O2 5 mM, 0.5-1 minute treatment", "result": "transient association"}]}
{"molecule": "CCCCCCCCCCCCCC(=O)O[C@@H]1[C@@H](C)[C@@]2(O)[C@@H](C=C(CO)C[C@]3(O)C(=O)C(C)=C[C@@H]23)[C@@H]2C(C)(C)[C@]12OC(C)=O", "note": "[PMA, phorbol 12-myristate 13-acetate]", "values": [{"measurement": "increase in the amount of annexin V/δ-PKC complex", "setting": "annexin V/δ-PKC complex; 10 nm PMA, within the first 0.5 minutes of treatment", "result": "~4", "unit": "fold"}]}
{"molecule": "COC(=O)Nc1nc2ccc(C(=O)c3cccs3)cc2[nH]1", "note": "[nocodazole]", "values": [{"measurement": "translocation profile of overexpressed δ-PKC", "setting": "δ-PKC [1]", "result": "did not alter the translocation profile"}]}
{"molecule": "EpAnxV: pAnxV in which the arginine in annexin V was replaced with the glutamate found in δ-PKC (SEQ ID NO:33) (YGRKKRRQRRRCCLQANEDPD; listed as Homo sapiens)", "values": [{"measurement": "δ-PKC/annexin V binding in ELISA", "setting": "δ-PKC/annexin V", "result": "no significant effect"}, {"measurement": "PMA-induced translocation of ε-PKC", "setting": "ε-PKC", "result": "neither peptide affected"}, {"measurement": "reduction of infarct size", "setting": "isolated rat hearts; 10 minutes prior to 30-minute no-flow ischemia and 10 minutes at onset of 60 minutes reperfusion, TTC staining", "result": "had no effect"}, {"measurement": "reduction in necrosis (creatine phosphokinase release in heart perfusate)", "setting": "isolated rat hearts; CPK measured during reperfusion", "result": "did not show any statistical difference from the control heart"}, {"measurement": "ischemia-induced δ-PKC-mediated damage to the heart", "setting": "isolated rat hearts; isolated rat hearts", "result": "did not inhibit"}]}
{"molecule": "LQANRDPD [pAnxV, annexin V-derived peptide, annexin V residues 157-164, conjugated to TAT47-57 carrier peptide]", "values": [{"measurement": "δ-PKC/annexin V complex formation (immunoprecipitation)", "setting": "annexin V/δ-PKC complex; peptide pretreatment", "result": "blocked"}, {"measurement": "δ-PKC/annexin V binding in ELISA", "setting": "δ-PKC/annexin V", "result": "inhibited"}, {"measurement": "PMA-induced translocation of ε-PKC", "setting": "ε-PKC", "result": "neither peptide affected"}, {"measurement": "PMA-induced translocation of δ-PKC to the particulate fraction", "setting": "δ-PKC [2]", "result": "blocked"}]}
{"molecule": "δ-V5: V5 domain of δ-PKC (SEQ ID NO:19), used as glutathione-S-transferase fusion (PKVKSPSDYSNFDPEFLNEKPQLSFSDKNLIDSMDQEAFHGFSFVNPKFEQFLDI; left off: a dimerising Fc or GST)", "values": [{"measurement": "binding to annexin V", "setting": "annexin V", "result": "bind to the annexin V"}]}
